The text below walks through data of patent US11306101B2 (Celgene Corporation, priority 2019, dated 2022).

Usually DC50 stands for the concentration at which degradation of the target reaches its halfway point. High values mean a less potent degrader, low ones a more potent degrader.

The experiment deals with T1, CK1α (Homo sapiens, UniProt P48729+Q96SW2).
T1 construct: expressed in transfected cells
The experiment can be described thus: CK1α ePL degradation assay in MDS-L cells. The note with it: MDS-L cells expressing ePL-tagged CK1α; for DC50: concentration giving 50% CK1α degradation vs DMSO control; for Y: lowest measured CK1α level normalized to DMSO control. It counts as cell-based. In a few lines:
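Degradation efficiency is reported as Y value, the minimum CK1α level (percent of DMSO control) across doses. Readout used InCELL Hunter luminescent detection after MDS-L cell exposure at 37° C for stated times, doses 10 μM down to 0.0005 μM in 3-fold steps.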

T1 sequence (P48729 whole entry): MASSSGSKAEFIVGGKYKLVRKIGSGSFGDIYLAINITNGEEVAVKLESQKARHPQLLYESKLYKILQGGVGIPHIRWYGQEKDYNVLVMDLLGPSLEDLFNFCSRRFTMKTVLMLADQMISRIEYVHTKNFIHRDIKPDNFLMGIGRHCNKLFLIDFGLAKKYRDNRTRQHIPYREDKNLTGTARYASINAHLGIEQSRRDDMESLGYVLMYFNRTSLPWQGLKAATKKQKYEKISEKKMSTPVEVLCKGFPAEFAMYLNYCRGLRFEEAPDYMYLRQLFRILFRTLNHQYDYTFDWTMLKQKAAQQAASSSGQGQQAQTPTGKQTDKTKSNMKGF
T1 sequence (Q96SW2 whole entry): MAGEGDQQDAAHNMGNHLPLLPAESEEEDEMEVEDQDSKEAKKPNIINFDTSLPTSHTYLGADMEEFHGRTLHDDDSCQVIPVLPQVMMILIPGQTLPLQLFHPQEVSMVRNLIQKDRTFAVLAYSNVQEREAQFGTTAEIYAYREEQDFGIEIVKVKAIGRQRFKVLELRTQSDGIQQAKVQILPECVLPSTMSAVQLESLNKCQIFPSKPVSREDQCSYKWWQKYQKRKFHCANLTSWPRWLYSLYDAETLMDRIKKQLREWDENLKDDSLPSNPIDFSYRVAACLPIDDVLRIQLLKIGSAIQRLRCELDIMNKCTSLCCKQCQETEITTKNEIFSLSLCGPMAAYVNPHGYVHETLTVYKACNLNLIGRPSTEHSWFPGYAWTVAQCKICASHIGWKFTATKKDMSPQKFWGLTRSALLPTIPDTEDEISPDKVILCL
T1 sequence (Q16531 whole entry partner): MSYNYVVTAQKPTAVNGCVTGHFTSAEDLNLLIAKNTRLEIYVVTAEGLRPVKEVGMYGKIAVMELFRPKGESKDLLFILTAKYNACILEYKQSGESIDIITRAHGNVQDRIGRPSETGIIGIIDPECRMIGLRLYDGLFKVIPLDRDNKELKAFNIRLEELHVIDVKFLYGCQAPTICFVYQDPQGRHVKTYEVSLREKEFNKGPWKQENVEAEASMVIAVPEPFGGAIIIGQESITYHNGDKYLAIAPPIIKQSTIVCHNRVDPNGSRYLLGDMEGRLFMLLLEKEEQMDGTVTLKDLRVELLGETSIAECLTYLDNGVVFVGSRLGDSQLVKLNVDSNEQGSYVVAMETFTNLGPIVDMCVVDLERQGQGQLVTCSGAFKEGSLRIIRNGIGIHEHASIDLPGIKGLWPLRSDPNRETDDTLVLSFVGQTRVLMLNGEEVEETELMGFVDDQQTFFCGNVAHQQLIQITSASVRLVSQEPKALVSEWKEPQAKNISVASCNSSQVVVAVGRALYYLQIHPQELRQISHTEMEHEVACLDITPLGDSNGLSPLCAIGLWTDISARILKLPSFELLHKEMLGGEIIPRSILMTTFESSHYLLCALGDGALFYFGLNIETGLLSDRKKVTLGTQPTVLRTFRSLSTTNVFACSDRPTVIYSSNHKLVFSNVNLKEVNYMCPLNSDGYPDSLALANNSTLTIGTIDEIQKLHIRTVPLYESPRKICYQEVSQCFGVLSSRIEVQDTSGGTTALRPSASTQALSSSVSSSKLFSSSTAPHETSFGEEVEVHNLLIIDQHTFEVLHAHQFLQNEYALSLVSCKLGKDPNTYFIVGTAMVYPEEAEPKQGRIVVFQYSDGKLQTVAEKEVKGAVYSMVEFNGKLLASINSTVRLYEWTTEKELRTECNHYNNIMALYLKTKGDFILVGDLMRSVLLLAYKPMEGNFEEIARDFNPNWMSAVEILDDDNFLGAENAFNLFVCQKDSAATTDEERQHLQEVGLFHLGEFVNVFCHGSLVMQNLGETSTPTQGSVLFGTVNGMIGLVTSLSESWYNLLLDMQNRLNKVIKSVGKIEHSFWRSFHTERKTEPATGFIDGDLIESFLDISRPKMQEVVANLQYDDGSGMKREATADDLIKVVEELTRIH

As to `O=C1CCC(N2Cc3c(ccc(C(=O)N[C@H](C4CCCC4)C(F)(F)F)c3F)C2=O)C(=O)N1` (stereo partly drawn) [Example 137, N-((R)-1-cyclopentyl-2,2,2-trifluoroethyl)-2-(2,6-dioxopiperidin-3-yl)-4-fluoro-1-oxoisoindoline-5-carboxamide], the DC50 is below 100 nM and the Y entry is reported as “* (a Y value (shown as *) of 0<Y≤20%)”.
With `O=C1CCC(N2Cc3c(ccc(C(=O)N[C@@H](C(F)(F)F)C45CC(C4)C5)c3F)C2=O)C(=O)N1` (stereo partly drawn) [Example 138, N-((R)-1-(bicyclo[1.1.1]pentan-1-yl)-2,2,2-trifluoroethyl)-2-(2,6-dioxopiperidin-3-yl)-4-fluoro-1-oxoisoindoline-5-carboxamide], the DC50 is below 100 nM and the Y result is listed as “* (a Y value (shown as *) of 0<Y≤20%)”.
For `O=C1CCC(N2Cc3c(ccc(C(=O)N[C@H](c4ncccc4Cl)C(F)(F)F)c3F)C2=O)C(=O)N1` (stereo partly drawn) [Example 139, N-((R)-1-(3-chloropyridin-2-yl)-2,2,2-trifluoroethyl)-2-(2,6-dioxopiperidin-3-yl)-4-fluoro-1-oxoisoindoline-5-carboxamide], in that order: below 100 nM and “* (a Y value (shown as *) of 0<Y≤20%)”.
For `O=C1CCC(N2Cc3cc(C(=O)N[C@H](c4cccc(CN5CCOCC5)c4)C(F)(F)F)ccc3C2=O)C(=O)N1` (stereo partly drawn) [Example 140, 2-(2,6-dioxopiperidin-3-yl)-1-oxo-N-((R)-2,2,2-trifluoro-1-(3-(morpholinomethyl)phenyl)ethyl)isoindoline-5-carboxamide], in that order: below 100 nM and “* (a Y value (shown as *) of 0<Y≤20%)”.
For `CN(C)Cc1ccc([C@@H](NC(=O)c2ccc3c(c2)CN(C2CCC(=O)NC2=O)C3=O)C(F)(F)F)cc1` (stereo partly drawn) [Example 141, N-((R)-1-(4-((dimethylamino)methyl)phenyl)-2,2,2-trifluoroethyl)-2-(2,6-dioxopiperidin-3-yl)-1-oxoisoindoline-5-carboxamide], the half-maximal degradation concentration (DC50) was below 100 nM and the Y result was “* (a Y value (shown as *) of 0<Y≤20%)”.
For `O=C1CCC(N2Cc3cc(C(=O)N[C@H](c4ccc(CN5CCOCC5)cc4)C(F)(F)F)ccc3C2=O)C(=O)N1` (stereo partly drawn) [Example 142, 2-(2,6-dioxopiperidin-3-yl)-1-oxo-N-((R)-2,2,2-trifluoro-1-(4-(morpholinomethyl)phenyl)ethyl)isoindoline-5-carboxamide], in that order: below 100 nM and “* (a Y value (shown as *) of 0<Y≤20%)”.
For `O=C1CCC(N2Cc3cc(C(=O)N[C@H](C4CCN(CC(F)(F)F)CC4)C(F)(F)F)ccc3C2=O)C(=O)N1` (stereo partly drawn) [Example 143, 2-(2,6-dioxopiperidin-3-yl)-1-oxo-N-((R)-2,2,2-trifluoro-1-(1-(2,2,2-trifluoroethyl)piperidin-4-yl)ethyl)isoindoline-5-carboxamide], in that order: 100 to 500 nM and “* (a Y value (shown as *) of 0<Y≤20%)”.
The corresponding values for `Cc1ccc([C@@H](NC(=O)c2ccc3c(c2F)CN(C2CCC(=O)NC2=O)C3=O)C(F)(F)F)cc1` (stereo partly drawn) [Example 144, 2-(2,6-dioxopiperidin-3-yl)-4-fluoro-1-oxo-N-((R)-2,2,2-trifluoro-1-p-tolylethyl)isoindoline-5-carboxamide] are 100 to 500 nM and “* (a Y value (shown as *) of 0<Y≤20%)”.
For the molecule `O=C1CCC(N2Cc3c(ccc(C(=O)N[C@H](c4ccc(F)cc4Cl)C(F)(F)F)c3F)C2=O)C(=O)N1` (stereo partly drawn) [Example 145, N-((R)-1-(2-chloro-4-fluorophenyl)-2,2,2-trifluoroethyl)-2-(2,6-dioxopiperidin-3-yl)-4-fluoro-1-oxoisoindoline-5-carboxamide], the DC50 was below 100 nM and the Y result is recorded as “* (a Y value (shown as *) of 0<Y≤20%)”.
The corresponding values for `O=C1CCC(N2Cc3c(ccc(C(=O)N[C@@H](CC(F)(F)F)c4cccc(F)c4)c3F)C2=O)C(=O)N1` (stereo partly drawn) [Example 146, 2-(2,6-dioxopiperidin-3-yl)-4-fluoro-1-oxo-N-((S)-3,3,3-trifluoro-1-(3-fluorophenyl)propyl)isoindoline-5-carboxamide] are 100 to 500 nM and “** (a Y value (shown as**) of 20%<Y≤35%)”.
For `O=C1CCC(N2Cc3cc(C(=O)N[C@H](c4ccc(Oc5ccccc5)cc4)C(F)(F)F)ccc3C2=O)C(=O)N1` (stereo partly drawn) [Example 147, 2-(2,6-dioxopiperidin-3-yl)-1-oxo-N-((R)-2,2,2-trifluoro-1-(4-phenoxyphenyl)ethyl)isoindoline-5-carboxamide], in that order: 100 to 500 nM and “** (a Y value (shown as**) of 20%<Y≤35%)”.
The corresponding values for `O=C1CCC(N2Cc3cc(C(=O)N[C@H](c4ccc(OC5CC5)cc4)C(F)(F)F)ccc3C2=O)C(=O)N1` (stereo partly drawn) [Example 148, N-((R)-1-(4-cyclopropoxyphenyl)-2,2,2-trifluoroethyl)-2-(2,6-dioxopiperidin-3-yl)-1-oxoisoindoline-5-carboxamide] are below 100 nM and “* (a Y value (shown as *) of 0<Y≤20%)”.
In the case of `O=C1CCC(N2Cc3cc(C(=O)N[C@@H](CC(F)(F)F)c4ccc(Cl)cc4)ccc3C2=O)C(=O)N1` (stereo partly drawn) [Example 149, N-((S)-1-(4-chlorophenyl)-3,3,3-trifluoropropyl)-2-(2,6-dioxopiperidin-3-yl)-1-oxoisoindoline-5-carboxamide], the DC50 is 500 to 1000 nM and the Y result is on record as “** (a Y value (shown as**) of 20%<Y≤35%)”.
The corresponding values for `CN(C)Cc1cccc([C@@H](NC(=O)c2ccc3c(c2)CN(C2CCC(=O)NC2=O)C3=O)C(F)(F)F)c1` (stereo partly drawn) [Example 150, N-((R)-1-(3-((dimethylamino)methyl)phenyl)-2,2,2-trifluoroethyl)-2-(2,6-dioxopiperidin-3-yl)-1-oxoisoindoline-5-carboxamide] are 100 to 500 nM and “** (a Y value (shown as**) of 20%<Y≤35%)”.
The corresponding values for `O=C1CCC(N2Cc3cc(C(=O)N[C@H](c4c(F)cccc4Cl)C(F)(F)F)ccc3C2=O)C(=O)N1` (stereo partly drawn) [Example 151, N-((R)-1-(2-chloro-6-fluorophenyl)-2,2,2-trifluoroethyl)-2-(2,6-dioxopiperidin-3-yl)-1-oxoisoindoline-5-carboxamide] are below 100 nM and “* (a Y value (shown as *) of 0<Y≤20%)”.
The corresponding values for `O=C1CCC(N2Cc3cc(C(=O)N[C@H](c4cccc(F)c4Cl)C(F)(F)F)ccc3C2=O)C(=O)N1` (stereo partly drawn) [Example 152, N-((R)-1-(2-chloro-3-fluorophenyl)-2,2,2-trifluoroethyl)-2-(2,6-dioxopiperidin-3-yl)-1-oxoisoindoline-5-carboxamide] are below 100 nM and “* (a Y value (shown as *) of 0<Y≤20%)”.
As to `O=C1CCC(N2Cc3c(ccc(C(=O)N[C@H](c4ccc(F)cc4)C(F)(F)F)c3Cl)C2=O)C(=O)N1` (stereo partly drawn) [Example 153, 4-chloro-2-(2,6-dioxopiperidin-3-yl)-1-oxo-N-((R)-2,2,2-trifluoro-1-(4-fluorophenyl)ethyl)isoindoline-5-carboxamide], the half-maximal degradation concentration (DC50) is 100 to 500 nM and the Y entry is “** (a Y value (shown as**) of 20%<Y≤35%)”.
For `CC(C)[C@H](NC(=O)c1ccc2c(c1)CN(C1CCC(=O)NC1=O)C2=O)c1ccccc1` (stereo partly drawn) [Example 154, 2-(2,6-dioxopiperidin-3-yl)-N-((S)-2-methyl-1-phenylpropyl)-1-oxoisoindoline-5-carboxamide], in that order: below 100 nM and “* (a Y value (shown as *) of 0<Y≤20%)”.
The corresponding values for `O=C1CCC(N2Cc3cc(C(=O)N[C@H](c4ccccc4CN4CCOCC4)C(F)(F)F)ccc3C2=O)C(=O)N1` (stereo partly drawn) [Example 155, 2-(2,6-dioxopiperidin-3-yl)-1-oxo-N-((R)-2,2,2-trifluoro-1-(2-(morpholinomethyl)phenyl)ethyl)isoindoline-5-carboxamide] are below 100 nM and “* (a Y value (shown as *) of 0<Y≤20%)”.
The corresponding values for `C[C@]1(O)CC[C@H]([C@@H](NC(=O)c2ccc3c(c2)CN(C2CCC(=O)NC2=O)C3=O)C(F)(F)F)CC1` (stereo partly drawn) [Example 156, 2-(2,6-dioxopiperidin-3-yl)-1-oxo-N-((R)-2,2,2-trifluoro-1-((1r,4R)-4-hydroxy-4-methylcyclohexyl)ethyl)isoindoline-5-carboxamide] are 100 to 500 nM and “* (a Y value (shown as *) of 0<Y≤20%)”.
Consider `O=C1CCC(N2Cc3c(ccc(C(=O)N[C@H](c4ccccc4OC4CC4)C(F)(F)F)c3F)C2=O)C(=O)N1` (stereo partly drawn) [Example 157, N-((R)-1-(2-cyclopropoxyphenyl)-2,2,2-trifluoroethyl)-2-(2,6-dioxopiperidin-3-yl)-4-fluoro-1-oxoisoindoline-5-carboxamide], for which the DC50 was below 100 nM and the Y result is reported as “** (a Y value (shown as**) of 20%<Y≤35%)”.
Turning to `O=C1CCC(N2Cc3cc(C(=O)N[C@H](c4cccc(Oc5ccccc5)c4)C(F)(F)F)ccc3C2=O)C(=O)N1` (stereo partly drawn) [Example 158, 2-(2,6-dioxopiperidin-3-yl)-1-oxo-N-((R)-2,2,2-trifluoro-1-(3-phenoxyphenyl)ethyl)isoindoline-5-carboxamide], the DC50 was below 100 nM and the Y entry was “* (a Y value (shown as *) of 0<Y≤20%)”.
For `O=C1CCC(N2Cc3cc(C(=O)N[C@H](c4ccccc4Oc4ccccc4)C(F)(F)F)ccc3C2=O)C(=O)N1` (stereo partly drawn) [Example 159, 2-(2,6-dioxopiperidin-3-yl)-1-oxo-N-((R)-2,2,2-trifluoro-1-(2-phenoxyphenyl)ethyl)isoindoline-5-carboxamide], the DC50 was below 100 nM and the Y entry is listed as “* (a Y value (shown as *) of 0<Y≤20%)”.
`O=C1CCC(N2Cc3cc(C(=O)N[C@H](c4cc(F)ccc4Cl)C(F)(F)F)ccc3C2=O)C(=O)N1` (stereo partly drawn) [Example 160, N-((R)-1-(2-chloro-5-fluorophenyl)-2,2,2-trifluoroethyl)-2-(2,6-dioxopiperidin-3-yl)-1-oxoisoindoline-5-carboxamide]: the DC50 was below 100 nM and the Y result is reported as “* (a Y value (shown as *) of 0<Y≤20%)”.
